Assay results reported in patent publication US20220267321A1, “AZAINDOLE PYRAZOLE COMPOUNDS AS CDK9 INHIBITORS” (MEDSHINE DISCOVERY INC., priority 2019, published 2022).
Counter-ions that a name gives are not always drawn.

Experiments:
CDK9/CyclinT1 = molecular target: T1, CDK9/CyclinT1 (Homo sapiens, UniProt P50750); assay: In vitro CDK9/CyclinT1 enzyme activity test (ADP-Glo); assay type: biochemical; conditions: 100 μM ATP, 25° C., 120 minutes
T1 construct: purchased Carna
Description: CDK9/CyclinT1 kinase was purchased from Carna, ADP-Glo detection kit was purchased from Promega, and PKDTide substrate and kinase reaction buffer were purchased from Signalchem. Nivo multi-label analyzer (PerkinElmer).
The kinase buffer in the kit was used to dilute the enzyme, substrate, adenosine triphosphate and inhibitors.
The compound to be tested was diluted by 5 times for 8 concentrations with a discharge gun, ie., dilution from 50 μM to 0.65 nM, with a DMSO concentration of 5%, and replicated. 1 μL of each concentration gradient of the inhibitor, 2 μL CDK9/CyclinT1 enzyme (4 ng), 2 μL of a mixture of substrate and ATP (100 μM adenosine triphosphate, 0.2 μg/μL substrate) was added to the microplate, and the final concentration gradient of the compound was 10 μM dilution to 0.13 nM. The reaction system was placed at 25° C. for 120 minutes. After the reaction, 5 μL of ADP-Glo reagent was added to each well, and the reaction was allowed to continue at 25° C. for 40 minutes. After the reaction, 10 μL of kinase detection reagent was added to each well. After reacting at 25° C. for 30 minutes, a multi-label analyzer was used to read chemiluminescence. The integration time was 0.5 seconds.
Table 1 provides the enzymatic inhibitory activity of the compounds of the present invention on CDK9/CyclinT1.

CDK2/CyclinE1 = molecular target: T2, CDK2/CyclinE1 (Homo sapiens, UniProt P24941); assay: In vitro CDK2/CyclinE1 enzyme activity test (ADP-Glo); assay type: biochemical; conditions: 150 μM ATP, 25° C., 60 minutes
T2 construct: purchased Promega
Description: CDK2/CyclinE1 kinase detection kit was purchased from Promega. Nivo multi-label analyzer (PerkinElmer).
(§1) Using the kinase buffer in the kit to dilute the enzyme, substrate, adenosine triphosphate and inhibitor.
The compound to be tested was diluted 5-fold to the 8th concentration with a discharge gun, that is, diluted from 50 μM to 0.65 nM, with a DMSO concentration of 5%, and replicated. Add 1 μL of each inhibitor concentration gradient, 2 μL CDK2/CyclinE1 enzyme (2 ng), 2 μL mixture of substrate and ATP (150 μM adenosine triphosphate, 0.1 μg/μL substrate) to the microplate, and the final concentration gradient of the compound is 10 μM dilution to 0.13 nM. The reaction system was placed at 25° C. for 60 minutes. After the reaction, add 5 μL of ADP-Glo reagent to each well, and continue the reaction at 25° C. for 40 minutes. After the reaction, add 10 μL of kinase detection reagent to each well. After reacting at 25° C. for 30 minutes, use a multi-label analyzer to read chemiluminescence. The integration time is 0.5 seconds.
Table 1 provides the CDK2/CyclinE1 enzymatic inhibitory activity of the compounds of the present invention.

MV-4-11 cells = assay: In vitro cell activity test, MV-4-11 proliferation (CellTiter-Glo); assay type: cell-based; conditions: Homo sapiens, MV4-11, 72 h, 3 days incubation
Description: IMDM medium, fetal bovine serum, penicillin/streptomycin antibiotics were purchased from Promega (Madison, Wis.). The MV-4-11 cell line was purchased from the Cell Bank of the Chinese Academy of Sciences. Nivo multi-label analyzer (PerkinElmer).
Plant MV-4-11 cells in a white 96-well plate, 80 μL of cell suspension per well, which contains 6000 MV-4-11 cells. The cell plate was cultured overnight in a carbon dioxide incubator.
The compound to be tested was diluted 5-fold to the 8th concentration with a discharge gun, that is, diluted from 2 mM to 26 nM, and replicated. Add 78 μL of culture medium to the middle plate, and then transfer 2 μL of each well of the gradient dilution compound to the middle plate according to the corresponding position, and transfer 20 μL of each well to the cell plate after mixing. The final concentration of the compound is 10 μM to 0.13 nM. The cell plate was placed in a carbon dioxide incubator for 3 days.
Add 25 μL of Promega CellTiter-Glo reagent per well to the cell plate and incubate at room temperature for 10 minutes to stabilize the luminescence signal. Use PerkinElmer Nivo multi-label analyzer to read.

CDK1/CyclinB1 = molecular target: T3, CDK1/CyclinB1 (Homo sapiens, UniProt P06493); assay: In vitro CDK1/CyclinB1 enzyme activity test (ADP-Glo); assay type: biochemical; conditions: 25 μM ATP, 25° C., 120 minutes
T3 construct: purchased Promega
T3 sequence (P06493 whole entry): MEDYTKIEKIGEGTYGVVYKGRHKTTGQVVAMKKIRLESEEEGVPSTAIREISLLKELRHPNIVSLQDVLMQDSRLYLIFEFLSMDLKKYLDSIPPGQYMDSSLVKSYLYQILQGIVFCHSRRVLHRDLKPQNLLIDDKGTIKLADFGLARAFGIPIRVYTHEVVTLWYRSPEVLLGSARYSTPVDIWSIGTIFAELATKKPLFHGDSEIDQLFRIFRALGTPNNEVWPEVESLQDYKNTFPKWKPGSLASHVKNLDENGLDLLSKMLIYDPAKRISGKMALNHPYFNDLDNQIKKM
T3 sequence (P14635 whole entry partner): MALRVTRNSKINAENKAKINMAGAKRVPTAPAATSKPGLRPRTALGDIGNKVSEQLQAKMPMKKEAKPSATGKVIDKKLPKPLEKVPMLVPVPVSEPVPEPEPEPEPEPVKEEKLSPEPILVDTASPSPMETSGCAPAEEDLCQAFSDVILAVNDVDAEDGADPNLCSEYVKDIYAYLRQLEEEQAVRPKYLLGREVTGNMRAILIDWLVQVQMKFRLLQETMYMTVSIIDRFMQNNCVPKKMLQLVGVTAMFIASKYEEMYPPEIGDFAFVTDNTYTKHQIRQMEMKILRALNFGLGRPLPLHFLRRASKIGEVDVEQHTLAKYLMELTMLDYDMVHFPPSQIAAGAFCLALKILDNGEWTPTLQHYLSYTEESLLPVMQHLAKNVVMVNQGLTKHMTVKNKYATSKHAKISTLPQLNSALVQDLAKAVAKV
Description: CDK1/CyclinB1 kinase detection kit was purchased from Promega. Nivo multi-label analyzer (PerkinElmer).
as §1
The compound to be tested was diluted 5-fold to the 8th concentration with a discharge gun, that is, diluted from 50 μM to 0.65 nM, with a DMSO concentration of 5%, and replicated. Add 1 μL of each inhibitor concentration gradient, 2 μL CDK1/CyclinB1 enzyme (12.5 ng), 2 μL mixture of substrate and ATP (25 μM adenosine triphosphate, 0.2 μg/μL substrate) into the microplate, and the final concentration gradient of the compound is 10 μM dilute to 0.13 nM. The reaction system was placed at 25° C. for 120 minutes. After the reaction, add 5 μL of ADP-Glo reagent to each well, and continue the reaction at 25° C. for 40 minutes. After the reaction, add 10 μL of kinase detection reagent to each well. After reacting at 25° C. for 30 minutes, use a multi-label analyzer to read chemiluminescence. The integration time is 0.5 seconds.
Table 1 provides the CDK1/CyclinB1 enzymatic inhibitory activity of the compounds of the present invention.

[1] = tested on: MV4-11 acute myeloid leukemia xenograft (CDX); assay: In vivo drug efficacy study (1), MV4-11 CDX model; conditions: 15 mg/kg injected weekly; for Tumor Volume Day 0: Day 0 (start of administration)
Description: In vivo drug efficacy experiments were performed on human-derived tumor cell line-based xenograft (CDX) BALB/c nude mice derived from patients with MV4-11 acute myeloid leukemia subcutaneously implanted.
(§2) Female 6- to 8-week old BALB/c nude mice which weighed about 18-22 g were kept in separate ventilated cages (3 mice per cage) in a special pathogen-free environment. All the cages, matts and water were disinfected before use. All the animals had free access to standard certified commercial laboratory diet. A total of 30 mice were purchased from Shanghai Lingchang biological science and technology Co., LTD. for study. Each mouse was subcutaneously implanted with tumor cells in the right next abdomen (10×10^6 in 0.2 mL of phosphate buffer) for tumor growth. The administration started when the average tumor volume reached approximately 110 cubic millimeters. The test compound was injected weekly at a dose of 15 mg/kg. The tumor volumes were measured with a two-dimensional caliper twice a week, and the volumes were expressed in cubic millimeters and calculated by the formula: V=0.5a×b^2, where a and b were the major diameter and the minor diameter of the tumor, respectively. Antitumor efficacy was determined by dividing an average increase of the tumor volumes of the animals treated with the compounds by an average increase of the tumor volumes of the untreated animals.

[2] = tested on: MV4-1 acute myeloid leukemia xenograft (CDX); assay: In vivo drug efficacy study (2), MV4-11 CDX model; conditions: 10 mg/kg injected weekly; for Tumor Volume Day 0: Day 0 (start of administration)
Description: In vivo drug efficacy experiments were performed on human-derived tumor cell line-based xenograft (CDX) BALB/c nude mice derived from patients with MV4-1 acute myeloid leukemia subcutaneously implanted.
as §2, with “36” for “30”, “121” for “110”, “10” for “15”

[3] = clinical research, background; cited from earlier work
[4] = background; cited from earlier work

T1 sequence (P50750 whole entry): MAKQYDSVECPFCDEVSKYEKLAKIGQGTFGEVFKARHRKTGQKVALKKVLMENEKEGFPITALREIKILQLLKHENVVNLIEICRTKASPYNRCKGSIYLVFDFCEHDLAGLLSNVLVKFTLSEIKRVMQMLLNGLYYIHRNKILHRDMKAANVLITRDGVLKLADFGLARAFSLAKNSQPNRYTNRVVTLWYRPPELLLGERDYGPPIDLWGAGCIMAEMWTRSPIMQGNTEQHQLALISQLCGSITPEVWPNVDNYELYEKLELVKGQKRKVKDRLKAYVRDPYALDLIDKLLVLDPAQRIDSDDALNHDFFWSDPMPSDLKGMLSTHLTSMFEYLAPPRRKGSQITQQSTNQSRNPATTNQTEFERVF
T1 sequence (O60563 whole entry partner): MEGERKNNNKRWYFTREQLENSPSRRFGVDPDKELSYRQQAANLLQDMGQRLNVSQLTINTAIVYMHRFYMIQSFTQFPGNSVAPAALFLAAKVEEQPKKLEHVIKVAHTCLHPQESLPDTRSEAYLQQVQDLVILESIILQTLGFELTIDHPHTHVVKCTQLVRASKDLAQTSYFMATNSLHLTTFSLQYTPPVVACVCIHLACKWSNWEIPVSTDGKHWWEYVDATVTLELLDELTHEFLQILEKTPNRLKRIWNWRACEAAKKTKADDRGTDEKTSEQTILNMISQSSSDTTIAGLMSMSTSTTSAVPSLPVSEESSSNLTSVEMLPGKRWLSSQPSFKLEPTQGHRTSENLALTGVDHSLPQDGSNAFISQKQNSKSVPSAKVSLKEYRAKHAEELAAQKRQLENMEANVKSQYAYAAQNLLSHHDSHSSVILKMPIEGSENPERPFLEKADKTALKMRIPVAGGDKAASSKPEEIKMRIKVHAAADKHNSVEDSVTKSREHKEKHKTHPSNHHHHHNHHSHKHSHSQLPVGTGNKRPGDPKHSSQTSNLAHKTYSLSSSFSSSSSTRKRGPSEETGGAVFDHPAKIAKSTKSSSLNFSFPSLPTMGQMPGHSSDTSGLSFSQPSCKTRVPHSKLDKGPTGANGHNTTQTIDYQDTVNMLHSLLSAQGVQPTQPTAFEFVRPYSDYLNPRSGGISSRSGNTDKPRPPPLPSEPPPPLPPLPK

| Compound | IC50 (CDK9/CyclinT1) [nM] | IC50 (CDK2/CyclinE1) [nM] | IC50 (MV-4-11 cells) [nM] | IC50 (CDK1/CyclinB1) [nM] | further results |
| --- | --- | --- | --- | --- | --- |
| Clc1cnc2[nH]c(C3CCNCC3)nc2c1-c1cnn(CC2CC2)c1 [Compound 14] | 38.4 | 1360 | 464 | – | – |
| Clc1cnc2[nH]c(C3CCNCC3)cc2c1-c1cnn(CC2CC2)c1 [Compound 1 (hydrochloride)] | 7.7 | 112 | 14.7 | 88.7 | Animals' Drug Tolerance [1]: Well; Tumor Volume Day 0 [1]: 110 mm^3; Tumor Volume Day 7 [1]: 109 mm^3; Tumor Volume Day 17 [1]: 42 mm^3; Tumor Volume Day 28 [1]: 107 mm^3; Animals' Drug Tolerance [2]: Well; Tumor Volume Day 0 [2]: 121 mm^3; Tumor Volume Day 7 [2]: 121 mm^3; Tumor Volume Day 17 [2]: 151 mm^3; Tumor Volume Day 28 [2]: 419 mm^3 |
| Clc1ccc(Cn2cc(-c3c(Cl)cnc4[nH]c(C5CCNCC5)cc34)cn2)cc1 [Compound 12] | 7.7 | 549 | 286 | 260 | – |
| CCN1CCC(c2cc3c(-c4cnn(CC5CC5)c4)c(Cl)cnc3[nH]2)CC1 [Compound 3 (hydrochloride)] | 14.1 | 105 | 7.4 | 416 | – |
| CN1CCC(c2cc3c(-c4cnn(CC5CC5)c4)c(Cl)cnc3[nH]2)CC1 [Compound 2 (formate)] | 7.1 | 79.4 | 35.7 | 255 | – |
| Cn1cc(-c2c(Cl)cnc3[nH]c(C4CCNCC4)cc23)cn1 [Compound 15 (hydrochloride)] | 4.3 | 685 | 34.5 | 824 | Animals' Drug Tolerance [2]: Well; Tumor Volume Day 0 [2]: 121 mm^3; Tumor Volume Day 7 [2]: 87 mm^3; Tumor Volume Day 17 [2]: 74 mm^3; Tumor Volume Day 28 [2]: 332 mm^3 |
| COc1cc(F)ccc1-c1cc(Nc2cc(CS(C)(=N)=O)ccn2)ncc1F (stereo not shown) [BAY1251152] | – | 193 | 28.2 | 300 | Animals' Drug Tolerance [1]: 5/6 mouse; Tumor Volume Day 0 [1]: 110 mm^3; Tumor Volume Day 7 [1]: 107 mm^3; Tumor Volume Day 17 [1]: 83 mm^3; Tumor Volume Day 28 [1]: 426 mm^3; clinically most important grade 3/4 and dose-limiting adverse side effect [3]: neutropenia |
| COCC(C)N1CCC(c2cc3c(-c4cnn(CC5CC5)c4)c(Cl)cnc3[nH]2)CC1 (stereo not shown) [Compound 6 (formate)] | 9.6 | 394 | 52 | 1030 | – |
| COCCN1CCC(c2cc3c(-c4cnn(CC5CC5)c4)c(Cl)cnc3[nH]2)CC1 [5 (hydrochloride)] | 10.6 | 235 | 63.8 | 1550 | – |
| Clc1cnc2[nH]c(C3CCNCC3)cc2c1-c1cnn(Cc2ccccc2)c1 [Compound 9 (formate)] | 6.3 | 105 | 67.3 | 133 | – |
| Clc1cccc(Cn2cc(-c3c(Cl)cnc4[nH]c(C5CCNCC5)cc34)cn2)c1 [Compound 11 (formate)] | 6.4 | 214 | 64.8 | 120 | – |
| Clc1ccccc1Cn1cc(-c2c(Cl)cnc3[nH]c(C4CCNCC4)cc23)cn1 [Compound 10 (formate)] | 6.9 | 549 | 79.1 | 87.9 | – |
| c1cc(-c2cnn(CC3CC3)c2)c2cc(C3CCNCC3)[nH]c2n1 [Compound 3 (formate)] | 18 | 933 | 252 | 879 | – |
| CC(=O)N[C@@H]1CCC[C@H](C(=O)Nc2cc(-c3cnn4c3CC(C)(C)C4)c(Cl)cn2)C1 [AZD4573] | – | 1 | – | 2 | Animals' Drug Tolerance [1]: Well; Tumor Volume Day 0 [1]: 110 mm^3; Tumor Volume Day 7 [1]: 173 mm^3; Tumor Volume Day 17 [1]: 262 mm^3; Tumor Volume Day 28 [1]: 975 mm^3; metabolism (in words) [4]: not good |
| Clc1cnc2[nH]c(C3CCNCC3)c(Cl)c2c1-c1cnn(CC2CC2)c1 [Compound 7] | 5.2 | 113 | 86.6 | 366 | – |
| CC(C)N1CCC(c2cc3c(-c4cnn(CC5CC5)c4)c(Cl)cnc3[nH]2)CC1 [4 (hydrochloride)] | 10.3 | 334 | 94.8 | 756 | – |
| Clc1cnc2[nH]c(C3CCNCC3)cc2c1-c1cnn(CC2CCCC2)c1 [Compound 8 (formate)] | 7.1 | 75 | 54.6 | 178 | – |
